In patent US20130317034A1, “COMBINATION THERAPY FOR TREATING DIABETES” (Japan Tobacco Inc., priority 2010, published 2013):

Legend:
[1] = Food consumption, body weight gain and body weight in rats fed a high fat diet; type: in vivo; conditions: Mean ± S.E. (n = 8)
Procedure: Forty-four eight week old male rats (Charles River Laboratories Japan, Inc.) were used for the experiment. Body weights and food weight were measured six days before and on the day before the dosing of the compound of formula (I). Body weight gain and food consumption were calculated for this period. Animals were fasted for 24 hours the day before dosing with the compound of formula (I). Using the body weights on the day of the dosing, body weight gain and food consumption as indicators, 32 rats were selected from those closest to the mean values. The rats were assigned to four groups (control, compound of formula (I) only, DPP-IV inhibitor only, and combination of compound of formula (I) and DPP-IV inhibitor) with eight animals in each group. One-way analysis of variance was performed using SAS Preclinical Package Version 5.0 and SAS System Version 8.2 (SAS Institute Japan Co., Ltd.) to verify that no significant intergroup differences were present after group allocation.
(§1) After the rats were fasted for 24 hours, either the compound of formula (I) (30 mg/kg) or vehicle (0.5% MC) was dosed orally. The rats were immediately fed with a high-fat diet for six hours and fasted overnight. Glucose tolerance tests (GTTs) were performed 30 minutes after dosing either sitagliptin or vehicle (0.5% MC). Dosing for each group is described in Tables 1 and 2 below.
Food consumption was calculated according to the following formula: food consumption (g)=food weight before feeding (g)−food weight after feeding (g). Body weight gain was calculated according the following formula: body weight gain (g)=body weight after feeding (g)-body weight before feeding (g). There were no significant differences between the groups in food consumption and body weight gain for six hours after dosing, and in body weight at the start of GTT (Table 3).

plasma GLP-1 = assay: Plasma GLP-1 level at the start of the GTT (GLP-1 (Active) ELISA); type: in vivo, rats
Procedure: (§2) This example studied the combined effects of the compound of formula (I) and sitagliptin, i.e., a DPP-IV inhibitor, on plasma GLP-1 levels and glucose tolerance as evaluated in rats fed a high fat diet.
as §1
(§3) At the start of the GTT, blood was collected to measure plasma GLP-1. The plasma glucose and insulin concentrations were measured before and after loading with the glucose solution. For the preparation of the glucose solution, glucose was diluted in saline at a concentration of 0.4 g/mL.
For the GTT, the rats were fasted overnight after six hours feeding. On the following day, 600-700 μL of blood were collected from the tail vein into tubes containing a DPP-IV inhibitor, aprotinin, and EDTA. Thereafter, a glucose solution at a dose of 1 g/2.5 mL/kg was loaded intraperitoneally. […]
After 200 μL of plasma sampled before the glucose loading were added with […] of ethanol, the solution was thoroughly mixed. […] The GLP-1 concentration was measured by the ELISA method using a GLP-1 (Active) ELISA kit.

rats fed a high fat diet [2] = assay: Glucose tolerance test (GTT): plasma insulin levels; type: in vivo
Procedure: as §2, §1, §3
(§4) For the GTT, the rats were fasted overnight after six hours feeding. On the following day, 600-700 μL of blood were collected from the tail vein into tubes containing a DPP-IV inhibitor, aprotinin, and EDTA. Thereafter, a glucose solution at a dose of 1 g/2.5 mL/kg was loaded intraperitoneally. At 10, 30, 60, and 120 minutes after loading the glucose solution, 200-300 μL of blood were collected from the tail vein into tubes containing heparin. The blood was centrifuged at 10,000×g and 4° C. for five minutes to obtain the plasma.

rats fed a high fat diet [3] = assay: Glucose tolerance test (GTT): plasma glucose levels; type: in vivo
Procedure: as §2, §1, §3, §4

[4] = six hours high-fat feeding after dosing, compound of formula (I) 30 mg/kg PO
[5] = 0 min after glucose loading (1 g/kg ip), compound of formula (I) 30 mg/kg PO, sitagliptin 10 mg/kg PO

SMILES: N[C@@H](CC(=O)N1CCn2c(nnc2C(F)(F)F)C1)Cc1cc(F)c(F)cc1F [sitagliptin]
- Body Weight ([1]; before GTT): 352.7 ± 6.9 g
- Body Weight Gain [1, 4]: 15.5 ± 1.2 g
- Food Consumption [1, 4]: 15.2 ± 1.3 g
- Plasma GLP-1 Level (plasma GLP-1; at the start of the GTT, compound of formula (I) 30 mg/kg PO day before, sitagliptin 10 mg/kg PO 30 min before GTT, Mean ± S.E. (n = 8)): 1.800 ± 0.270 pmol/L
- Plasma GLP-1 levels prior to glucose loading, in words (plasma GLP-1; versus control group): significantly higher
- Plasma Insulin Level (rats fed a high fat diet [2]; [5]): 2.350 ± 0.439 ng/mL
- Plasma Insulin Level (rats fed a high fat diet [2]; 10 min after glucose loading): 4.968 ± 0.562 ng/mL
- Plasma Insulin Level (rats fed a high fat diet [2]; 30 min after glucose loading): 4.595 ± 0.675 ng/mL
- Plasma Insulin Level (rats fed a high fat diet [2]; 60 min after glucose loading): 3.253 ± 0.749 ng/mL
- Plasma Insulin Level (rats fed a high fat diet [2]; 120 min after glucose loading): 3.046 ± 0.435 ng/mL
- AUC of Plasma Insulin Level (rats fed a high fat diet [2]; during the GTT, 0-120 min): 438.898 ± 72.779 ng·min/mL
- Plasma insulin levels during the GTT, in words (rats fed a high fat diet [2]; versus control group): higher
- Plasma Glucose Level (rats fed a high fat diet [3]; [5]): 149 ± 6 mg/dL
- Plasma Glucose Level (rats fed a high fat diet [3]; 10 min after glucose loading): 264 ± 16 mg/dL
- Plasma Glucose Level (rats fed a high fat diet [3]; 30 min after glucose loading): 255 ± 12 mg/dL
- Plasma Glucose Level (rats fed a high fat diet [3]; 60 min after glucose loading): 185 ± 8 mg/dL
- Plasma Glucose Level (rats fed a high fat diet [3]; 120 min after glucose loading): 157 ± 5 mg/dL
- Plasma glucose levels in the GTT, in words (rats fed a high fat diet [3]; at 60 minutes after glucose loading, versus control group): significantly decreased
- AUC of Plasma Glucose Level (rats fed a high fat diet [3]; during the GTT, 0-120 min): 24095 ± 981 mg·min/dL
- AUC for the glucose levels during the GTT, in words (rats fed a high fat diet [3]; versus control group): lower than that for the control group, although there were no statistically significant differences
